The results in this text go back to patent publication US8361968B2 (Takeda Pharmaceutical Company Limited, priority 2002, dated 2013).

The experiment has as its target hOT7T175 (Homo sapiens, UniProt Q969F8, L364H). As to the kind of experiment: Intracellular Ca ion level-increasing activity using FLIPR in hOT7T175/CHO. It counts as cell-based. More on the design: expressed in transfected cells; host or cells: CHO/dhfr- cells, obtained from ATCC. The following applies: relative, Metastin (1-54) = 1. As for the experimental part: Assay for Intracellular Ca Ion Level-Increasing Activity Using Flipr
In accordance with the method described in JPA 2000-312590, the intracellular Ca ion level-increasing activity was measured using FLIPR.
The stable expression cell line hOT7T175 was acquired by transduction of expression plasmid pAK-rOT175 for animal cells into CHO/dhff cells, using CellPhect Transfection Kit (Amersham Pharmacia Biotech, Inc.). First, 240 μL of Buffer A (attached to CellPhect Transfection Kit) was added to 9.6 μg of plasmid DNA dissolved in 240 μl of distilled water, followed by stirring. After settling the mixture for 10 minutes, 480 μL of Buffer B (attached to CellPhect Transfection Kit) was added to the mixture, which was vigorously stirred to form DNA-containing liposomes. Then, 4×10^5 CHO/dhff cells (obtained from ATCC) were inoculated on a 60 mm Petri dish. […] After culturing the cells at 37° C. for 6 hours in 5% carbon dioxide gas, the cells were washed twice with serum-free Ham's F-12 medium and 3 ml of 15% glycerol was added to the cells in the Petri dish to treat for 2 minutes. The cells were again washed twice with serum-free Ham's F-12 medium followed by incubation in Ham's F-12 medium supplemented with 10% fetal bovine serum at 37° C. for 15 hours in 5% carbon dioxide gas. The cells were dispersed by trypsin treatment and recovered from the Petri dish. The recovered cells were inoculated on a 6-well plate in 1.25×10^4 cells/well and incubation was initiated at 37° C. in Dulbecco's modified Eagle medium (DMEM) medium (Nissui Seiyaku Co., Ltd.) containing 10% dialyzed fetal bovine serum (JRH BIOSCIENCES, Inc.) under 5% carbon dioxide gas. […] The medium was exchanged on Days 1 and 2 to remove the cells died.
The intracellular Ca ion level-increasing activity of the synthetic peptide in hOT7T175/CHO was determined using FLIPR (Molecular Devices, Inc.).
hOT7T175/CHO was subcultured in DMEM supplemented with 10% dialyzed fetal bovine serum (hereinafter abbreviated as dFBS) and provided for the experiment (hereinafter abbreviated as 10% dFBS/DMEM). The hOT7T175/CHO was suspended in 10% dFBS-DMEM in 15×10^4 cells/ml. The suspension was inoculated on a 96-well plate for FLIPR (Black Plate Clear Bottom, Coster, Inc.) at 200 μL each (3.0×10^4 cells/200 μL/well), followed by incubation at 37° C. overnight in a 5% CO2 incubator (hereinafter simply referred to as the cell plate). Then, 21 ml of HANKS/HBSS (9.8 g of HANKS, 0.35 g of sodium hydrogencarbonate, 20 ml of 1M HEPES; after adjusting the pH to 7.4 with 1N sodium hydroxide, the mixture was sterilized by filtration), 210 μl of 250 mM Probenecid and […] of fetal bovine serum (FBS) were mixed (HANKS/HBSS-Probenecid-FBS).
Furthermore, 2 vials of Fluo3-AM (50 μug/vial) were dissolved in 21 μL of dimethylsulfoxide and 21 μL of 20% Pluronic acid. The resulting solution was added to and mixed with 10 ml of HANKS/HBSS-Probenecid-FBS described above. After the culture medium was removed, the mixture was dispensed onto the cell plate in 100 μL each/well, followed by incubation at 37° C. for an hour in a 5% CO2 incubator (pigment loading). The peptide was dissolved in dimethylsulfoxide in 1×10^−3 M. The peptide solution was diluted with HANKS/HBSS containing 2.5 mM Probenecid, 0.2% BSA and 0.1% CHAPS.

Numbered stars: 1 amine (or outer) side, 2 acyl side, 3 side chain; on linkers, the order of the positions; unused ones are H or OH. Square brackets hold non-standard residues; d marks the D form. Ends that are not written are not given here. Peptide text beside a SMILES is read from it. * marks the point of attachment. X4 = CC(C)C[C@H](NCCN*)C(=O)N[C@@H](CCCNC(=N)N)C(=O)N[C@@H](Cc1ccccc1)C(N)=O; X11 = O=C(CNC(=S)[C@H](Cc1ccccc1)N[*:1])[*:2]; Phe(4-Cl) = N[C@@H](Cc1ccc(Cl)cc1)C(=O)O; Phe(4-NH2) = Nc1ccc(C[C@H](N)C(=O)O)cc1; Arg(Me) = CNC(=N)NCCC[C@H](N)C(=O)O; d4Pal = N[C@H](Cc1ccncc1)C(=O)O; X3 = NC(=S)[C@H](Cc1ccccc1)N*; azaGly = NNC(=O)O

Chain of hOT7T175 (Q969F8 whole entry L364H): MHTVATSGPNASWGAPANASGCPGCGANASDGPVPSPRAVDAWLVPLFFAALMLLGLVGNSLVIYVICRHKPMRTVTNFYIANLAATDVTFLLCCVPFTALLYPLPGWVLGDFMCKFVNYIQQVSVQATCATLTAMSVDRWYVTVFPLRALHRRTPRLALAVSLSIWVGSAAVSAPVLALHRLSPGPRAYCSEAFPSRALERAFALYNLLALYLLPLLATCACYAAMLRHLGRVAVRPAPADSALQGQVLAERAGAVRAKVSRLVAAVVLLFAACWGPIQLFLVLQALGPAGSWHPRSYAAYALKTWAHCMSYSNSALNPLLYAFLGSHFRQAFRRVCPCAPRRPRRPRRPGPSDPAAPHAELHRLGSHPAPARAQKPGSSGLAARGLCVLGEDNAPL

As for `CNC(=N)NCCC[C@H](NC(=O)[C@H](CC(C)C)NC(=O)NNC(=O)[C@H](Cc1ccccc1)NC(=O)[C@H](CO)NC(=O)[C@H](CC(N)=O)NC(=O)[C@@H](Cc1ccncc1)NC(=O)[C@H](CC(N)=O)NC(=O)[C@H](N)Cc1ccc(O)cc1)C(=O)N[C@@H](Cc1ccccc1)C(N)=O` [Compound No. 302, D-Tyr-Asn-D-Pya(4)-Asn-Ser-Phe-AzaGly-Leu-Arg(Me)-Phe-NH2] (H-[dY]N[d4Pal]NSF[azaGly]L[Arg(Me)]F-NH2), the “Specific Activity (intracellular Ca ion level-increasing activity)” value is listed as 2.

For the compound “Tyr-Asn-Trp-Phe-Gly-Leu-Arg-Phe-NH2 (YNWFGLRF-NH2) [Compound No. 88]”, the “Specific Activity (intracellular Ca ion level-increasing activity)” value was found to be 1.

Consider `CNC(=N)NCCC[C@H](NC(=O)[C@H](CC(C)C)NC(=O)NNC(=O)[C@H](Cc1ccccc1)NC(=O)[C@H](CO)NC(=O)[C@H](CC(N)=O)NC(=O)[C@H](Cc1c[nH]c2ccccc12)NC(=O)[C@@H](Cc1c[nH]cn1)NC(=O)[C@H](N)Cc1ccc(O)cc1)C(=O)N[C@@H](Cc1ccccc1)C(N)=O` [Compound No. 288, D-Tyr-D-His-Trp-Asn-Ser-Phe-AzaGly-Leu-Arg(Me)-Phe-NH2] (H-[dY][dH]WNSF[azaGly]L[Arg(Me)]F-NH2), for which the “Specific Activity (intracellular Ca ion level-increasing activity)” value came to 1.

As for `CNC(=N)NCCC[C@H](NC(=O)[C@H](CC(C)C)NC(=O)NNC(=O)[C@H](Cc1ccccc1)NC(=O)[C@H](CO)NC(=O)[C@H](CC(N)=O)NC(=O)[C@H](Cc1c[nH]c2ccccc12)NC(=O)[C@H](CC(N)=O)NC(=O)[C@H](N)Cc1ccc(O)cc1)C(=O)N[C@@H](Cc1ccc(F)cc1)C(N)=O` [Compound No. 318, D-Tyr-Asn-Trp-Asn-Ser-Phe-AzaGly-Leu-Arg(Me)-Phe(4F)-NH2], the “Specific Activity (intracellular Ca ion level-increasing activity)” value turned out to be 5.

With `CC(C)C[C@H](NC(=O)CNC(=O)[C@H](Cc1ccc(F)cc1)NC(=O)[C@H](CO)NC(=O)[C@H](CC(N)=O)NC(=O)[C@H](Cc1c[nH]c2ccccc12)NC(=O)[C@H](CC(N)=O)NC(=O)[C@@H](N)Cc1ccc(O)cc1)C(=O)N[C@@H](CCCNC(=N)N)C(=O)N[C@@H](Cc1ccccc1)C(N)=O` [Compound No. 154, Tyr-Asn-Trp-Asn-Ser-Phe(4F)-Gly-Leu-Arg-Phe-NH2], the “Specific Activity (intracellular Ca ion level-increasing activity)” value amounted to 5.

Take `CC(C)C[C@H](NCCNC(=O)[C@H](Cc1ccccc1)NC(=O)[C@H](CO)NC(=O)[C@H](CC(N)=O)NC(=O)[C@H](Cc1c[nH]c2ccccc12)NC(=O)[C@H](CC(N)=O)NC(=O)[C@@H](N)Cc1ccc(O)cc1)C(=O)N[C@@H](CCCNC(=N)N)C(=O)N[C@@H](Cc1ccccc1)C(N)=O` [Compound No. 261, Tyr-Asn-Trp-Asn-Ser-Phe-GlyΨ(CH2NH)Leu-Arg-Phe-NH2] (H-YNWNSF-X4; N-terminus assumed): the “Specific Activity (intracellular Ca ion level-increasing activity)” value came out at 1.

`CC(C)C[C@H](NC(=O)CNC(=O)[C@H](Cc1ccccc1)NC(=O)[C@H](CO)NC(=O)[C@H](CC(N)=O)NC(=O)[C@H](Cc1c[nH]c2ccccc12)NC(=O)[C@H](CC(N)=O)NC(=O)[C@@H](N)Cc1ccc(O)cc1)C(=O)N[C@@H](CCCNC(=N)N)C(=O)N[C@@H](Cc1ccccc1)C(N)=S` [Compound No. 128] (H-YNWNSFGLR-X3): the “Specific Activity (intracellular Ca ion level-increasing activity)” value was found to be 10.

For the compound `CNC(=N)NCCC[C@H](NC(=O)[C@H](CC(C)C)NC(=O)NNC(=O)[C@H](Cc1ccccc1)NC(=O)[C@H](CO)NC(=O)[C@H](CC(N)=O)NC(=O)[C@H](Cc1ccc(Cl)cc1)NC(=O)[C@H](CC(N)=O)NC(=O)[C@H](N)Cc1ccc(O)cc1)C(=O)N[C@@H](Cc1ccccc1)C(N)=O` [Compound No. 249, D-Tyr-Asn-Phe(4Cl)-Asn-Ser-Phe-AzaGly-Leu-Arg(Me)-Phe-NH2] (H-[dY]N[Phe(4-Cl)]NSF[azaGly]L[Arg(Me)]F-NH2), the “Specific Activity (intracellular Ca ion level-increasing activity)” value came out at 1.

Take `CNC(=N)NCCC[C@H](NC(=O)[C@H](CC(C)C)NC(=O)CNC(=S)[C@H](Cc1ccccc1)NC(=O)[C@H](CO)NC(=O)[C@H](CC(N)=O)NC(=O)[C@H](Cc1c[nH]c2ccccc12)NC(=O)[C@H](CC(N)=O)NC(=O)[C@H](N)Cc1ccc(O)cc1)C(=O)N[C@@H](Cc1ccccc1)C(N)=O` [Compound No. 296, D-Tyr-Asn-Trp-Asn-Ser-PheΨ(CSNH)Gly-Leu-Arg(Me)-Phe-NH2] (H-[dY]NWNS[X11]L[Arg(Me)]F-NH2): the “Specific Activity (intracellular Ca ion level-increasing activity)” value is recorded as 3.

Turning to `CNC(=N)NCCC[C@H](NC(=O)[C@H](CC(C)C)NC(=O)NNC(=O)[C@H](Cc1ccccc1)NC(=O)[C@@H](NC(=O)[C@H](CC(N)=O)NC(=O)[C@H](Cc1c[nH]c2ccccc12)NC(=O)[C@@H](CC(N)=O)NC(=O)[C@H](N)Cc1ccc(O)cc1)[C@@H](C)O)C(=O)N[C@@H](Cc1ccccc1)C(N)=O` [Compound No. 298, D-Tyr-D-Asn-Trp-Asn-Thr-Phe-AzaGly-Leu-Arg(Me)-Phe-NH2] (H-[dY][dN]WNTF[azaGly]L[Arg(Me)]F-NH2), the “Specific Activity (intracellular Ca ion level-increasing activity)” value came out at 5.

Consider `CNC(=N)NCCC[C@H](NC(=O)[C@H](CC(C)C)NC(=O)CNC(=O)[C@H](Cc1ccccc1)NC(=O)[C@H](CO)NC(=O)[C@H](CC(N)=O)NC(=O)[C@H](Cc1c[nH]c2ccccc12)NC(=O)[C@H](N)CC(N)=O)C(=O)N[C@@H](Cc1ccccc1)C(N)=O` [Compound No. 216] (H-[dN]WNSFGL[Arg(Me)]F-NH2; N-terminus assumed), for which the “Specific Activity (intracellular Ca ion level-increasing activity)” value was determined as 1.

With `CC(C)C[C@H](NC(=O)CNC(=O)[C@H](Cc1ccccc1)NC(=O)[C@H](CO)NC(=O)[C@H](CC(N)=O)NC(=O)[C@H](Cc1c[nH]c2ccccc12)NC(=O)[C@H](CC(N)=O)NC(=O)[C@@H](N)Cc1ccc(O)cc1)C(=O)N[C@@H](CCCNC(=N)N)C(=O)N[C@@H](Cc1ccc([N+](=O)[O-])cc1)C(N)=O` [Compound No. 132], the “Specific Activity (intracellular Ca ion level-increasing activity)” value is given as 10.

On to `CNC(=N)NCCC[C@H](NC(=O)[C@H](CC(C)C)NC(=O)CNC(=O)[C@H](Cc1ccccc1)NC(=O)[C@H](CO)NC(=O)[C@@H](NC(=O)[C@H](Cc1c[nH]c2ccccc12)NC(=O)[C@H](CC(N)=O)NC(=O)[C@H](N)Cc1ccc(O)cc1)[C@@H](C)O)C(=O)N[C@@H](Cc1ccccc1)C(N)=O` [Compound No. 208] (H-[dY]NWTSFGL[Arg(Me)]F-NH2), for which the “Specific Activity (intracellular Ca ion level-increasing activity)” value stood at 1.

`CNC(=N)NCCC[C@H](NC(=O)[C@H](CC(C)C)NC(=O)NNC(=O)[C@H](Cc1ccccc1)NC(=O)[C@H](CO)NC(=O)[C@H](CC(N)=O)NC(=O)[C@H](Cc1ccc(N)cc1)NC(=O)[C@H](CC(N)=O)NC(=O)[C@H](N)Cc1ccc(O)cc1)C(=O)N[C@@H](Cc1ccccc1)C(N)=O` [Compound No. 250, D-Tyr-Asn-Phe(4NH2)-Asn-Ser-Phe-AzaGly-Leu-Arg(Me)-Phe-NH2] (H-[dY]N[Phe(4-NH2)]NSF[azaGly]L[Arg(Me)]F-NH2): the “Specific Activity (intracellular Ca ion level-increasing activity)” value was 1.

Consider “Methylthiocarbamoyl-Sar-D-Tyr-Asn-Trp-Asn-Ser-Phe-Gly-Leu-Arg(Me)-Phe-NH2 [Compound No. 397]”, for which the “Specific Activity (intracellular Ca ion level-increasing activity)” value worked out at 5.

Regarding `CNC(=N)NCCC[C@H](NC(=O)[C@H](CC(C)C)NC(=O)NNC(=O)[C@H](Cc1ccccc1)NC(=O)[C@H](CO)NC(=O)[C@H](CC(N)=O)NC(=O)[C@H](Cc1ccccc1)NC(=O)[C@H](N)Cc1ccc(O)cc1)C(=O)N[C@@H](Cc1ccccc1)C(N)=O` [Compound No. 254, D-Tyr-Phe-Asn-Ser-Phe-AzaGly-Leu-Arg(Me)-Phe-NH2] (H-[dY]FNSF[azaGly]L[Arg(Me)]F-NH2), the “Specific Activity (intracellular Ca ion level-increasing activity)” value was found to be 1.
